Reference: PubChem BioAssay (NCI)
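GI50: concentration for 50% inhibition of growth. TGI: total growth inhibition.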

Key:
Test in all cases: growth of human tumour cells (NCI), 384-well format; in the data active = GI50 below about 0.43 µM; inactive = the rest
OVCAR-5 ovarian = test system: OVCAR-5 ovarian
NCI-H226 lung = test system: NCI-H226 lung
NCI-H460 NSCLC = test system: NCI-H460 NSCLC
A549 NSCLC = test system: A549 NSCLC
SK-MEL-28 melanoma = test system: SK-MEL-28 melanoma
ACHN renal = test system: ACHN renal
HT29 colon = test system: HT29 colon
OVCAR-3 ovarian = test system: OVCAR-3 ovarian
MCF7 breast = test system: MCF7 breast
MOLT-4 leukemia = test system: MOLT-4 leukemia
NCI/ADR-RES ovarian = test system: NCI/ADR-RES ovarian
PC-3 prostate = test system: PC-3 prostate
CCRF-CEM leukemia = test system: CCRF-CEM leukemia
MDA-MB-435 melanoma = test system: MDA-MB-435 melanoma
SK-MEL-5 melanoma = test system: SK-MEL-5 melanoma
EKVX NSCLC = test system: EKVX NSCLC
RPMI-8226 leukemia = test system: RPMI-8226 leukemia
IGROV1 ovarian = test system: IGROV1 ovarian
COLO 205 colon = test system: COLO 205 colon
KM12 colon = test system: KM12 colon
SK-MEL-2 melanoma = test system: SK-MEL-2 melanoma
DU-145 prostate = test system: DU-145 prostate
T-47D breast = test system: T-47D breast
U251 glioblastoma = test system: U251 glioblastoma
SK-OV-3 ovarian = test system: SK-OV-3 ovarian
SNB-19 CNS = test system: SNB-19 CNS
SF-539 CNS = test system: SF-539 CNS
HS 578T breast = test system: HS 578T breast
RXF 393 renal = test system: RXF 393 renal
NCI-H322M lung = test system: NCI-H322M lung
SF-268 CNS = test system: SF-268 CNS
SNB-75 CNS = test system: SNB-75 CNS
UACC-62 melanoma = test system: UACC-62 melanoma
NCI-H23 lung = test system: NCI-H23 lung
786-0 renal = test system: 786-0 renal
HL-60(TB) leukemia = test system: HL-60(TB) leukemia
BT-549 breast = test system: BT-549 breast
MDA-MB-468 breast = test system: MDA-MB-468 breast
SF-295 CNS = test system: SF-295 CNS
HCC-2998 colon = test system: HCC-2998 colon
M14 melanoma = test system: M14 melanoma
TK-10 renal = test system: TK-10 renal
UACC-257 melanoma = test system: UACC-257 melanoma
HCT-15 colon = test system: HCT-15 colon
SN12C renal = test system: SN12C renal
CAKI-1 renal = test system: CAKI-1 renal
OVCAR-4 ovarian = test system: OVCAR-4 ovarian
OVCAR-8 ovarian = test system: OVCAR-8 ovarian
NCI-H522 lung = test system: NCI-H522 lung
SW-620 colon = test system: SW-620 colon
MDA-MB-231 breast = test system: MDA-MB-231 breast
HOP-62 NSCLC = test system: HOP-62 NSCLC
SR leukemia = test system: SR leukemia
HOP-92 NSCLC = test system: HOP-92 NSCLC
A498 renal = test system: A498 renal

O=C1c2ccccc2-c2n[nH]c3cccc1c23
> 100 µM: TGI (OVCAR-5 ovarian) | TGI (A549 NSCLC) | TGI (SK-MEL-28 melanoma) | TGI (HT29 colon) | TGI (OVCAR-3 ovarian) | TGI (MCF7 breast) | TGI (NCI/ADR-RES ovarian) | TGI (PC-3 prostate) | TGI (MDA-MB-435 melanoma) | TGI (EKVX NSCLC) | TGI (KM12 colon) | TGI (DU-145 prostate) | TGI (T-47D breast) | TGI (U251 glioblastoma) | TGI (SNB-19 CNS) | TGI (NCI-H322M lung) | TGI (UACC-62 melanoma) | TGI (NCI-H23 lung) | TGI (786-0 renal) | TGI (HL-60(TB) leukemia) | TGI (SF-295 CNS) | TGI (TK-10 renal) | TGI (UACC-257 melanoma) | TGI (HCT-15 colon) | TGI (SN12C renal) | TGI (OVCAR-4 ovarian) | TGI (OVCAR-8 ovarian) | TGI (SW-620 colon) | TGI (MDA-MB-231 breast) | TGI (HOP-92 NSCLC)
53.5 µM: TGI (NCI-H522 lung)
30 µM: TGI (RPMI-8226 leukemia)
26.6 µM: TGI (SK-MEL-5 melanoma)
12.5 µM: TGI (MDA-MB-468 breast)
14.6 µM: TGI (SK-OV-3 ovarian)
inactive: GI50 (OVCAR-5 ovarian) 17.8 µM | GI50 (NCI-H226 lung) 2.26 µM | GI50 (NCI-H460 NSCLC) 6.56 µM | GI50 (A549 NSCLC) 15.8 µM | GI50 (SK-MEL-28 melanoma) 74.8 µM | GI50 (ACHN renal) 11 µM | GI50 (HT29 colon) 11.4 µM | GI50 (OVCAR-3 ovarian) 20.2 µM | GI50 (MCF7 breast) 37.4 µM | GI50 (MOLT-4 leukemia) 1.74 µM | GI50 (NCI/ADR-RES ovarian) 53.9 µM | GI50 (PC-3 prostate) 20.8 µM | GI50 (CCRF-CEM leukemia) 6 µM | GI50 (MDA-MB-435 melanoma) 17.4 µM | GI50 (SK-MEL-5 melanoma) 5.77 µM | GI50 (EKVX NSCLC) 4.49 µM | GI50 (RPMI-8226 leukemia) 4.09 µM | GI50 (IGROV1 ovarian) 4.82 µM | GI50 (COLO 205 colon) 10.3 µM | GI50 (KM12 colon) 2.78 µM | GI50 (SK-MEL-2 melanoma) 5.03 µM | GI50 (DU-145 prostate) 14.7 µM | GI50 (T-47D breast) 21.5 µM | GI50 (U251 glioblastoma) 9.02 µM | GI50 (SK-OV-3 ovarian) 3.03 µM | GI50 (SNB-19 CNS) 45.1 µM | GI50 (SF-539 CNS) 8.72 µM | GI50 (HS 578T breast) 5.63 µM | GI50 (RXF 393 renal) 11.7 µM | GI50 (NCI-H322M lung) 32.4 µM | GI50 (SF-268 CNS) 5.72 µM | GI50 (SNB-75 CNS) 1.87 µM | GI50 (UACC-62 melanoma) 15.5 µM | GI50 (NCI-H23 lung) 19.8 µM | GI50 (786-0 renal) 19.2 µM | GI50 (HL-60(TB) leukemia) 10.4 µM | GI50 (BT-549 breast) 3.72 µM | GI50 (MDA-MB-468 breast) 2.72 µM | GI50 (SF-295 CNS) 34.1 µM | GI50 (HCC-2998 colon) 3.74 µM | GI50 (M14 melanoma) 5.93 µM | GI50 (TK-10 renal) 4.21 µM | GI50 (UACC-257 melanoma) 27.9 µM | GI50 (HCT-15 colon) 4.63 µM | GI50 (SN12C renal) 23.3 µM | GI50 (CAKI-1 renal) 3.39 µM | GI50 (OVCAR-4 ovarian) 32 µM | GI50 (OVCAR-8 ovarian) 22.1 µM | GI50 (NCI-H522 lung) 7.22 µM | GI50 (SW-620 colon) 11.7 µM | GI50 (MDA-MB-231 breast) 13.9 µM | GI50 (HOP-62 NSCLC) 14.8 µM | GI50 (SR leukemia) 2.38 µM | GI50 (HOP-92 NSCLC) 20 µM | GI50 (A498 renal) 3 µM
58.9 µM: TGI (M14 melanoma)
81.4 µM: TGI (RXF 393 renal)
64.6 µM: TGI (IGROV1 ovarian)
84.6 µM: TGI (A498 renal)
25.2 µM: TGI (CCRF-CEM leukemia)
69.1 µM: TGI (HOP-62 NSCLC)
46.8 µM: TGI (ACHN renal)
97.4 µM: TGI (SF-539 CNS)
17 µM: TGI (SK-MEL-2 melanoma)
71.2 µM: TGI (HS 578T breast)
41.5 µM: TGI (SNB-75 CNS)
57 µM: TGI (SF-268 CNS)
43.5 µM: TGI (HCC-2998 colon)
49.7 µM: TGI (BT-549 breast)
6.99 µM: TGI (SR leukemia)
3.76 µM: TGI (MOLT-4 leukemia)
37.6 µM: TGI (NCI-H460 NSCLC)
26 µM: TGI (COLO 205 colon)
11.7 µM: TGI (NCI-H226 lung)
14.9 µM: TGI (CAKI-1 renal)
